For assay [1], the target named is D(3) dopamine receptor (Chlorocebus aethiops, UniProt P52703).
Description: Displacement of [3H]-YM 09151 from african monkey Dopamine receptor D3
For assay [2], the target named is T1, D(4) dopamine receptor (Homo sapiens, UniProt P21917).
T1 sequence (P21917 whole entry): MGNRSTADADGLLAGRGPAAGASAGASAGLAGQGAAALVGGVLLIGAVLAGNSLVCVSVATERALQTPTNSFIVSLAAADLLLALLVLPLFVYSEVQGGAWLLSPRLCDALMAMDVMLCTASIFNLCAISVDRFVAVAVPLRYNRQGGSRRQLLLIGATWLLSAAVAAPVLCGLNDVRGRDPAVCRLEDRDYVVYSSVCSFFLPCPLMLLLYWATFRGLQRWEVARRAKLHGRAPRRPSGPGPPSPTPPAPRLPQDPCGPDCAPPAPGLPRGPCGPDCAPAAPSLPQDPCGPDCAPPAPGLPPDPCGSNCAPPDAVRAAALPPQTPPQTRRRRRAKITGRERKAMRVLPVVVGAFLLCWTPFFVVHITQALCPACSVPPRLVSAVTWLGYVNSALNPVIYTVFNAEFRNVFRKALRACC
Description: Displacement of [3H]-YM 09151 from human Dopamine receptor D4

In assay [3] the target is D(2) dopamine receptor (Rattus norvegicus, UniProt P61169). As to the kind of experiment: Binding affinity towards Dopamine receptor D2 of rat using [3H]spiperone.
Chain of D(2) dopamine receptor (P61169 whole entry): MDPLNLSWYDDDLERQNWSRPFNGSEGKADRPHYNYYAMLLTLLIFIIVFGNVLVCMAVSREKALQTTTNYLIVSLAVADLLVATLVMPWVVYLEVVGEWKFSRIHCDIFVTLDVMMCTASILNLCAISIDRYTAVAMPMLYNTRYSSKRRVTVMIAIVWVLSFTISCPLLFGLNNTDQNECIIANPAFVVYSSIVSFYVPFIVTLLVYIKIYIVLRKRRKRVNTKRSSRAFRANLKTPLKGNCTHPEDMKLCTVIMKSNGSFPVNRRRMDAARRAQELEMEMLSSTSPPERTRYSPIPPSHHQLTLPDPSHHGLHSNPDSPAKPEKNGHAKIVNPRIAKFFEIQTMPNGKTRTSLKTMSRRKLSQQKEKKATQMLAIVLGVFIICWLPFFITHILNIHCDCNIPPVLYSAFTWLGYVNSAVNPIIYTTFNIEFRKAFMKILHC

Usually Ki stands for the dissociation constant of the complex between target and ligand, obtained from inhibition or displacement. The low end stands for higher affinity, the high end for lower affinity.

The structures appear in SMILES notation.

Chain of D(3) dopamine receptor (P52703 whole entry): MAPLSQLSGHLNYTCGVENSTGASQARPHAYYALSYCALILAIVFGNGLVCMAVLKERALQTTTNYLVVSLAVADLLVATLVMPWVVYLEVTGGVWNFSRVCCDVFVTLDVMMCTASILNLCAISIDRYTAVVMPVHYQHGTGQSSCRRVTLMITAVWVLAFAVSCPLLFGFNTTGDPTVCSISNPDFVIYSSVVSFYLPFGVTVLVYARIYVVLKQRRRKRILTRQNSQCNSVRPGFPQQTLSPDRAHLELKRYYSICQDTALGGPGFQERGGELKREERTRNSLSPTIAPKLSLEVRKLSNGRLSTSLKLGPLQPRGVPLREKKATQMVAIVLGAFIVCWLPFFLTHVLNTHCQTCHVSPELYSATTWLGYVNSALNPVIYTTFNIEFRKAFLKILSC

With `O=c1[nH]c2ccccc2n1C1CCN(Cc2ccn(-c3ccccc3)c2)CC1`, the Ki in assay [1] was found to be 398 nM; in assay [2] it was 646 nM.

For the compound `c1ccc(N2CCN(Cc3ccn(-c4ccccc4)c3)CC2)cc1`, the Ki in assay [1] came to 49 nM; in assay [2], 4 nM.

For `c1ccc(C2CCN(Cc3ccn(-c4ccccc4)c3)CC2)cc1`, the results for the Ki in assay [1] and in assay [2] were 61 nM and 9 nM, respectively.

In assay [2], `C1=C(c2ccccc2)CCN(Cc2ccn(-c3ccccc3)c2)C1` returned an inhibition constant (Ki) of 4 nM.

In the case of `c1ccc(-n2ccc(CN3CCN(c4ccccn4)CC3)c2)cc1`, the Ki in assay [1] came out at 150 nM; in assay [2] it was 1.6 nM.

For `O=C1NCN(c2ccccc2)C12CCN(Cc1ccn(-c3ccccc3)c1)CC2`, the Ki in assay [1] turned out to be 90 nM; in assay [2], 201 nM.

With `OC1(c2ccc(Cl)cc2)CCN(Cc2ccn(-c3ccccc3)c2)CC1`, the values for the Ki in assay [1] and in assay [2] were 477 nM and 325 nM, respectively.

As for `OC1(c2cccc(C(F)(F)F)c2)CCN(Cc2ccn(-c3ccccc3)c2)CC1`, the figures for the Ki in assay [1] and in assay [2] were 420 nM and 492 nM, respectively.

In the case of `COc1ccccc1N1CCN(Cc2ccc(-c3ccccc3)n2C)CC1`, in assay [3], the inhibitory constant (Ki) amounted to 0.8 nM.

Compound `CN1CCN(C2=Nc3cc(Cl)ccc3Nc3ccccc32)CC1` [CLOZAPINE] registered a Ki in assay [1] of 466 nM.

With `COc1ccccc1N1CCN(Cc2ccn(-c3ccccc3)c2)CC1`, in assay [2], the Ki is 1.3 nM.

(Values after ChEMBL document CHEMBL1128213, “1-Phenyl-3-(aminomethyl)pyrroles as potential antipsychotic agents. Synthesis and dopamine receptor binding” (J Med Chem, 1995).)
